# Calls of active or inactive are those of the source. The rule behind the calls is not given here.
# Assays:
# [1] = test system: Plasmodium falciparum; assay: Antimalarial activity against chloroquine-resistant Plasmodium falciparum W2 by LDH reporter assay; assay type: functional, organism-based
# [2] = in vitro; conditions: monkey, Vero cells
# Description: Selectivity index, ratio of IC50 for african green monkey (Cercopithecus aethiops) Vero cells to IC50 for chloroquine-sensitive Plasmodium falciparum D6
# [3] = in vitro; conditions: monkey, Vero cells; remark: listed apart in the source
# Description: Selectivity index, ratio of IC50 for african green monkey (Cercopithecus aethiops) Vero cells to IC50 for chloroquine-resistant Plasmodium falciparum W2
# [4] = test system: Plasmodium falciparum; assay: Antimalarial activity against chloroquine-sensitive Plasmodium falciparum D6 by LDH reporter assay; assay type: functional, organism-based
# [5] = test system: Vero; assay: Cytotoxicity against african green monkey Vero cells at 10 ug/ml; assay type: cell-based; conditions: chlorocebus sabaeus
# [6] = test system: Leishmania donovani; assay: Antileishmanial activity against Leishmania donovani promastigotes after 72 hrs; assay type: functional, organism-based
# [7] = test system: SK-MEL; assay: Cytotoxicity against human SK-MEL cells; assay type: functional, cell-based
# [8] = test system: BT-549; assay: Cytotoxicity against human BT549 cells; assay type: functional, cell-based
# [9] = test system: Vero; assay: Cytotoxicity against african green monkey Vero cells; assay type: cell-based; conditions: chlorocebus sabaeus
# [10] = Specific index, ratio of IC50 for human HL60 cells to MIC for LFA1:CD11a/CD18/ICAM1- mediated aggregation in PMA-induced human HL60 cells; assay type: functional, HL-60
# [11] = test system: SK-OV-3; assay: Cytotoxicity against human SKOV3 cells; assay type: functional, cell-based
# [12] = target: T1, Integrin alpha-L (Homo sapiens) (UniProt P20701); assay: Inhibition of LFA1:CD11a/CD18/ICAM1- mediated aggregation in PMA-induced human HL60 cells; assay type: cell-based; conditions: HL-60
# T1 sequence (whole entry): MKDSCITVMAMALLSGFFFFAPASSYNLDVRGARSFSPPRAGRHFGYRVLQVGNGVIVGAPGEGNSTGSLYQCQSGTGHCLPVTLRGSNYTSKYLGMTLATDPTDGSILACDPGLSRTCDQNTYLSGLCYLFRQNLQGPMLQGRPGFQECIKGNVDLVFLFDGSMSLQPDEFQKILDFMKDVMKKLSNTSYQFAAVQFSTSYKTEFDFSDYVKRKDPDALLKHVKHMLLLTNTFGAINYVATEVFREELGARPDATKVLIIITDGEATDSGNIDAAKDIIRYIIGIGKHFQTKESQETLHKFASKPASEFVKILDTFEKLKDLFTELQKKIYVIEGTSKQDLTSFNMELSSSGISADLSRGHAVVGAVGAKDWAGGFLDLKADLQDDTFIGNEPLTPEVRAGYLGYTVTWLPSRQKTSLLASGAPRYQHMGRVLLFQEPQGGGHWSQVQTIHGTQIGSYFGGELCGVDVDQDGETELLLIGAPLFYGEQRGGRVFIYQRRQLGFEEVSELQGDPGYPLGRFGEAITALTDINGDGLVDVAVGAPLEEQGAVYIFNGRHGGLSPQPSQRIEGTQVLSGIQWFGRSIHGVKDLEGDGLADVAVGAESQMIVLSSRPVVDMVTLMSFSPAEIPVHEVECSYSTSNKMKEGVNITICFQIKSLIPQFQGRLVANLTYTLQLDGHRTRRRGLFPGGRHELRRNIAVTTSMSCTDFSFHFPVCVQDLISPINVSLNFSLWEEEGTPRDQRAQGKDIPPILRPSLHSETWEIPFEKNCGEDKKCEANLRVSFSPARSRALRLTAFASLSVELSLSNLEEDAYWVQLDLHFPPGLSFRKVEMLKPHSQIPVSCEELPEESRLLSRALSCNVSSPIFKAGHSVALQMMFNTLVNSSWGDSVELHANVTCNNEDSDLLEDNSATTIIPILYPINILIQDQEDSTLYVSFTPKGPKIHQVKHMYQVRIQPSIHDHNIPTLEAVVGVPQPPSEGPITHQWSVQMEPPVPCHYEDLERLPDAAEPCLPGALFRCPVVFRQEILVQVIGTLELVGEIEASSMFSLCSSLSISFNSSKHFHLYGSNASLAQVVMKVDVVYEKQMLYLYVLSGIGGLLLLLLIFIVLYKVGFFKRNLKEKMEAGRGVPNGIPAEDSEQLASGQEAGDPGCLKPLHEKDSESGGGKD
# [13] = test system: KB; assay: Cytotoxicity against human KB cells; assay type: functional, cell-based
# [14] = test system: HL-60; assay: Cytotoxicity against human HL60 cells by XTT assay; assay type: functional, cell-based
# [15] = Specific index, ratio of IC50 for human HL60 cells to MIC for LFA1:CD11a/CD18/ICAM1-mediated human HL60 cell adhesion to human HeLa cells; assay type: functional
# [16] = target: T1, Integrin alpha-L (Homo sapiens); assay: Inhibition of LFA1:CD11a/CD18/ICAM1-mediated human HL60 cell adhesion to human HeLa cells expressing ICAM1 by fluorescence analysis; assay type: cell-based
Structure (SMILES),IC50 [1] [µg/mL],selectivity ratio [2],selectivity ratio [3],IC50 [4] [µg/mL],Activity [5],IC50 [6] [µg/mL],IC90 [6] [µg/mL],IC50 [7] [µg/mL],IC50 [8] [µg/mL],IC50 [9] [µg/mL],Ratio [10],IC50 [11] [µg/mL],MIC [12] [µg/mL],IC50 [13] [µg/mL],IC50 [14] [µg/mL],Ratio [15],Activity [16]
CC[C@H]1CN2CCc3cc(OC)c(OC)cc3[C@@H]2C[C@@H]1C[C@@H]1NCCc2cc(O)c(O)cc21,3.07,> 7,> 3,1.5,Non-toxic,7.5,19,,,,,,,,,,
C[C@@H]1[C@H](O)[C@@H](C)/C=C/C=C/C=C/C=C/C=C/C=C/C=C/[C@H](O[C@@H]2O[C@H](C)[C@@H](O)[C@H](N)[C@@H]2O)C[C@@H]2O[C@](O)(C[C@@H](O)C[C@@H](O)[C@H](O)CC[C@@H](O)C[C@@H](O)CC(=O)O[C@H]1C)C[C@H](O)[C@H]2C(=O)O [AMPHOTERICIN B],,,,,,0.17,0.28,,,,,,,,,,
C[C@@H]1CC[C@H]2[C@@H](C)C(=O)O[C@@H]3O[C@@]4(C)CC[C@@H]1[C@]32OO4 [ARTEMISININ],0.0085,> 699,> 1180,0.0143,Non-toxic,,,,,,,,,,,,
CC[C@H]1CN2CCc3cc(OC)c(OC)cc3[C@@H]2C[C@@H]1C[C@H]1NCCc2cc(O)c(OC)cc21 [CEPHAELINE],0.0277,132,193,0.038,,0.03,1.5,0.25,0.86,5.3,2.17,0.18,6.9,0.33,14.9,,
CCN(CC)CCCC(C)Nc1ccnc2cc(Cl)ccc12 (centres undefined) [CHLOROQUINE],,,,,Non-toxic,,,,,,,,,,,,
C=C1[C@@H](C)[C@H]2[C@H](Cc3ccccc3)NC(=O)[C@]23OC(=O)/C=C/[C@H](O)CCC[C@@H](C)C/C=C/[C@H]3[C@@H]1O [CYTOCHALASIN B],,,,,,,,,,,13,,2.5,,> 30,>5.5,
COc1cccc2c1C(=O)c1c(O)c3c(c(O)c1C2=O)C[C@@](O)(C(=O)CO)C[C@@H]3O[C@H]1C[C@H](N)[C@H](O)[C@H](C)O1 [DOXORUBICIN],,,,,,,,1.57,1,,,1.53,,1.7,,,
CC[C@H]1CN2CCc3cc(OC)c(OC)cc3[C@@H]2C[C@@H]1C[C@H]1NCCc2cc(OC)c(OC)cc21 [EMETINE],0.078,6,5,0.0727,,0.03,0.13,,,0.42,1.53,,0.26,,0.38,,
CC[C@H]1CN2CCc3cc(OC)c(OC)cc3[C@@H]2C[C@@H]1C[C@@H]1NCCc2cc(O)c(OC)cc21 [ISOCEPHAELINE],0.29,> 54,> 35,0.187,Non-toxic,0.45,0.98,> 10,> 10,,,> 10,,> 10,,,
CC[C@H]1CN2CCc3cc(O)c(OC)cc3[C@@H]2C[C@@H]1C[C@@]1(O)NCCc2cc(O)c(OC)cc21 [KLUGINE],0.0463,> 265,> 217,0.0377,Non-toxic,0.4,2.5,> 10,> 10,,1.2,> 10,20.8,> 10,25,,inactive
N=C(N)c1ccc(OCCCCCOc2ccc(C(=N)N)cc2)cc1 [PENTAMIDINE],,,,,,,2.4,,,,,,,,,,

# — ChEMBL document CHEMBL1146553, “Antiparasitic alkaloids from Psychotria klugii” (J Nat Prod, 2003)
